Laboratory results: PubChem BioAssay (NCI)
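Five compound concentrations were applied to cells in 96-well plates for 48 hours; endpoints were derived by simple linear interpolation of the resulting dose-response curve. GI50: concentration for 50% inhibition of growth. TGI: total growth inhibition.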

Columns and labels:
Assay in all cases: inhibition of tumour cell growth, NCI panel, 48 h
786-0 renal = system: 786-0 renal
A498 renal = system: A498 renal
A549 NSCLC = system: A549 NSCLC
ACHN renal = system: ACHN renal
BT-549 breast = system: BT-549 breast
CAKI-1 renal = system: CAKI-1 renal
CCRF-CEM leukemia = system: CCRF-CEM leukemia
COLO 205 colon = system: COLO 205 colon
DU-145 prostate = system: DU-145 prostate
EKVX NSCLC = system: EKVX NSCLC
HCC-2998 colon = system: HCC-2998 colon
HCT-116 colon = system: HCT-116 colon
HCT-15 colon = system: HCT-15 colon
HL-60(TB) leukemia = system: HL-60(TB) leukemia
HOP-62 NSCLC = system: HOP-62 NSCLC
HOP-92 NSCLC = system: HOP-92 NSCLC
HS 578T breast = system: HS 578T breast
HT29 colon = system: HT29 colon
IGROV1 ovarian = system: IGROV1 ovarian
K-562 leukemia = system: K-562 leukemia
KM12 colon = system: KM12 colon
LOX IMVI melanoma = system: LOX IMVI melanoma
M14 melanoma = system: M14 melanoma
MALME-3M melanoma = system: MALME-3M melanoma
MCF7 breast = system: MCF7 breast
MDA-MB-231 breast = system: MDA-MB-231 breast
MDA-MB-435 = system: MDA-MB-435
MDA-MB-468 breast = system: MDA-MB-468 breast
MOLT-4 leukemia = system: MOLT-4 leukemia
NCI-H226 lung = system: NCI-H226 lung
NCI-H23 lung = system: NCI-H23 lung
NCI-H460 lung = system: NCI-H460 lung
NCI-H522 lung = system: NCI-H522 lung
NCI/ADR-RES ovarian = system: NCI/ADR-RES ovarian
OVCAR-3 ovarian = system: OVCAR-3 ovarian
OVCAR-4 ovarian = system: OVCAR-4 ovarian
OVCAR-5 ovarian = system: OVCAR-5 ovarian
OVCAR-8 ovarian = system: OVCAR-8 ovarian
PC-3 prostate = system: PC-3 prostate
RPMI-8226 leukemia = system: RPMI-8226 leukemia
RXF 393 renal = system: RXF 393 renal
SF-268 CNS = system: SF-268 CNS
SF-295 CNS = system: SF-295 CNS
SF-539 CNS = system: SF-539 CNS
SK-MEL-2 melanoma = system: SK-MEL-2 melanoma
SK-MEL-28 melanoma = system: SK-MEL-28 melanoma
SK-MEL-5 melanoma = system: SK-MEL-5 melanoma
SK-OV-3 ovarian = system: SK-OV-3 ovarian
SN12C renal = system: SN12C renal
SNB-19 CNS = system: SNB-19 CNS
SNB-75 CNS = system: SNB-75 CNS
SR leukemia = system: SR leukemia
SW-620 colon = system: SW-620 colon
T-47D breast = system: T-47D breast
TK-10 renal = system: TK-10 renal
U251 CNS = system: U251 CNS
UACC-257 melanoma = system: UACC-257 melanoma
UACC-62 melanoma = system: UACC-62 melanoma
UO-31 renal = system: UO-31 renal

CC[C@@]12CC(C(=O)OC)=C3Nc4cc5c(cc4[C@@]34CCN(C[C@H]3O[C@H]31)[C@@H]24)[C@@H]1[C@H](O5)[C@@H](O)[C@@]2(CC)CC(C(=O)OC)=C3Nc4cc(OC)ccc4[C@@]34CCN1[C@@H]24
GI50 (786-0 renal): 0.267 µM
TGI (786-0 renal): > 54 µM
GI50 (A498 renal): 0.698 µM
TGI (A498 renal): 24.7 µM
GI50 (A549 NSCLC): 0.706 µM
TGI (A549 NSCLC): > 54 µM
GI50 (ACHN renal): 0.727 µM
TGI (ACHN renal): 15.2 µM
GI50 (BT-549 breast): 0.307 µM
TGI (BT-549 breast): > 13.1 µM
GI50 (CAKI-1 renal): 0.142 µM
TGI (CAKI-1 renal): > 54 µM
GI50 (CCRF-CEM leukemia): 0.376 µM
TGI (CCRF-CEM leukemia): > 54 µM
GI50 (COLO 205 colon): 0.356 µM
TGI (COLO 205 colon): 2.77 µM
GI50 (DU-145 prostate): 5.67 µM
TGI (DU-145 prostate): > 54 µM
GI50 (EKVX NSCLC): 0.928 µM
TGI (EKVX NSCLC): > 54 µM
GI50 (HCC-2998 colon): 0.423 µM
TGI (HCC-2998 colon): 1.95 µM
GI50 (HCT-116 colon): 0.253 µM
TGI (HCT-116 colon): 2.93 µM
GI50 (HCT-15 colon): 0.293 µM
TGI (HCT-15 colon): 4.03 µM
GI50 (HL-60(TB) leukemia): 0.0748 µM
TGI (HL-60(TB) leukemia): 1.27 µM
GI50 (HOP-62 NSCLC): 0.313 µM
TGI (HOP-62 NSCLC): > 54 µM
GI50 (HOP-92 NSCLC): 0.248 µM
TGI (HOP-92 NSCLC): > 43.7 µM
GI50 (HS 578T breast): 0.128 µM
TGI (HS 578T breast): > 54 µM
GI50 (HT29 colon): 0.228 µM
TGI (HT29 colon): > 54 µM
GI50 (IGROV1 ovarian): 0.548 µM
TGI (IGROV1 ovarian): > 22.8 µM
GI50 (K-562 leukemia): 0.218 µM
TGI (K-562 leukemia): > 54 µM
GI50 (KM12 colon): 0.939 µM
TGI (KM12 colon): > 54 µM
GI50 (LOX IMVI melanoma): 0.273 µM
TGI (LOX IMVI melanoma): 1.25 µM
GI50 (M14 melanoma): 0.416 µM
TGI (M14 melanoma): > 54 µM
GI50 (MALME-3M melanoma): 0.605 µM
TGI (MALME-3M melanoma): > 43.1 µM
GI50 (MCF7 breast): 0.174 µM
TGI (MCF7 breast): > 54 µM
GI50 (MDA-MB-231 breast): 0.33 µM
TGI (MDA-MB-231 breast): > 40.3 µM
GI50 (MDA-MB-435): 0.32 µM
TGI (MDA-MB-435): > 54 µM
GI50 (MDA-MB-468 breast): 0.181 µM
TGI (MDA-MB-468 breast): 1.2 µM
GI50 (MOLT-4 leukemia): 1.22 µM
TGI (MOLT-4 leukemia): 23.2 µM
GI50 (NCI-H226 lung): 0.485 µM
TGI (NCI-H226 lung): > 54 µM
GI50 (NCI-H23 lung): 0.89 µM
TGI (NCI-H23 lung): 20.2 µM
GI50 (NCI-H460 lung): 1.37 µM
TGI (NCI-H460 lung): > 54 µM
GI50 (NCI-H522 lung): 0.182 µM
TGI (NCI-H522 lung): 2.84 µM
GI50 (NCI/ADR-RES ovarian): 0.731 µM
TGI (NCI/ADR-RES ovarian): 20.7 µM
GI50 (OVCAR-3 ovarian): 0.453 µM
TGI (OVCAR-3 ovarian): 13.4 µM
GI50 (OVCAR-4 ovarian): 0.656 µM
TGI (OVCAR-4 ovarian): > 54 µM
GI50 (OVCAR-5 ovarian): 1.52 µM
TGI (OVCAR-5 ovarian): > 54 µM
GI50 (OVCAR-8 ovarian): 0.736 µM
TGI (OVCAR-8 ovarian): > 54 µM
GI50 (PC-3 prostate): 0.657 µM
TGI (PC-3 prostate): > 54 µM
GI50 (RPMI-8226 leukemia): 0.136 µM
TGI (RPMI-8226 leukemia): 2.21 µM
GI50 (RXF 393 renal): 1.15 µM
TGI (RXF 393 renal): 6.01 µM
GI50 (SF-268 CNS): 2.99 µM
TGI (SF-268 CNS): > 54 µM
GI50 (SF-295 CNS): 0.891 µM
TGI (SF-295 CNS): > 44.7 µM
GI50 (SF-539 CNS): 0.416 µM
TGI (SF-539 CNS): > 54 µM
GI50 (SK-MEL-2 melanoma): 1.61 µM
TGI (SK-MEL-2 melanoma): > 39 µM
GI50 (SK-MEL-28 melanoma): 1.38 µM
TGI (SK-MEL-28 melanoma): > 54 µM
GI50 (SK-MEL-5 melanoma): 0.37 µM
TGI (SK-MEL-5 melanoma): 2.29 µM
GI50 (SK-OV-3 ovarian): 0.336 µM
TGI (SK-OV-3 ovarian): 5.48 µM
GI50 (SN12C renal): 1.56 µM
TGI (SN12C renal): > 54 µM
GI50 (SNB-19 CNS): 0.66 µM
TGI (SNB-19 CNS): > 40.4 µM
GI50 (SNB-75 CNS): 0.0631 µM
TGI (SNB-75 CNS): > 54 µM
GI50 (SR leukemia): 0.254 µM
TGI (SR leukemia): > 46.5 µM
GI50 (SW-620 colon): 1.81 µM
TGI (SW-620 colon): > 54 µM
GI50 (T-47D breast): 0.466 µM
TGI (T-47D breast): > 54 µM
GI50 (TK-10 renal): 0.219 µM
TGI (TK-10 renal): 52.3 µM
GI50 (U251 CNS): 0.911 µM
TGI (U251 CNS): > 54 µM
GI50 (UACC-257 melanoma): 0.436 µM
TGI (UACC-257 melanoma): > 54 µM
GI50 (UACC-62 melanoma): 0.168 µM
TGI (UACC-62 melanoma): 3.83 µM
GI50 (UO-31 renal): 0.167 µM
TGI (UO-31 renal): > 26 µM
